Experiments:
[1] = tested on: MCF-7; test: MTT assay, MCF-7 breast cancer cells; format: cell-based; conditions: Homo sapiens, MCF7, 10 μM, 72 h after the treatment, mean of three independent experiments, read-out: Percentage of cell viability MCF-7
Summary of the method: (§1)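 Cells seeded 24 h at 37 °C, 5% CO2, then treated 72 h with a concentration range; single-point screen at 10 μM gave % viability. MTT (0.5 mg/mL, 4 h), DMSO-solubilised, A570; GI50 from sigmoidal curves, mean of three experiments.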

[2] = tested on: SKBR-3; test: MTT assay, SKBR-3 breast cancer cells; format: cell-based; conditions: Homo sapiens, SK-BR-3; 10 μM, 72 h after the treatment, MTT, mean of three independent experiments; read-out: Percentage of cell viability SKBR-3
Summary of the method: as §1

[3] = tested on: MDA-MB231; test: MTT assay, MDA-MB231 breast cancer cells; format: cell-based; conditions: Homo sapiens, MDA-MB-231; for viability at 10 µM: 72 h after the treatment, MTT, mean of three independent experiments, read-out: Percentage of cell viability MDA-MB231
Summary of the method: as §1

Compound	melting point [°C]	viability at 10 µM [1] [%]	viability at 10 µM [2] [%]	viability at 10 µM [3] [%]	GI50 ([3]; −log[GI50], MDA-MB231, read-out: Experimental pGI50 (converted)) [µM]
Nc1nc(Nc2ccccc2Cl)nc(-c2ccccc2)n1 (hydrate or solvate) [Compound 4, N ^2-(2-Chlorophenyl)-6-phenyl-1,3,5-triazine-2,4-diamine]	82 to 84	–	–	–	–
Cc1cccc(-c2nc(N)nc(Nc3ccc(F)cc3)n2)c1 (hydrate or solvate) [Compound 53, N ^2-(4-Fluorophenyl)-6-(3-methylphenyl)-1,3,5-triazine-2,4-diamine]	138 to 139	–	–	–	–
COc1ccc(Nc2nc(N)nc(-c3cccc(C)c3)n2)cc1 (hydrate or solvate) [Compound 57, N ^2-(4-Methoxyphenyl)-6-(3-methylphenyl)-1,3,5-triazine-2,4-diamine]	150 to 152	–	–	–	–
Cc1cccc(-c2nc(N)nc(Nc3ccc(C(C)C)cc3)n2)c1 (hydrate or solvate) [Compound 59, N ^2-(4-Isopropylphenyl)-6-(3-methylphenyl)-1,3,5-triazine-2,4-diamine]	134 to 136	–	–	–	–
Nc1nc(Nc2ccccc2F)nc(-c2cccs2)n1 (hydrate or solvate) [Compound 116, N ^2-(2-Fluorophenyl)-6-(thiophen-2-yl)-1,3,5-triazine-2,4-diamine]	165 to 167	–	–	–	–
COc1ccc(Nc2nc(N)nc(-c3cccs3)n2)cc1 (hydrate or solvate) [Compound 123, N ^2-(4-Methoxyphenyl)-6-(thiophen-2-yl)-1,3,5-triazine-2,4-diamine]	139 to 141	–	–	–	–
Nc1nc(Nc2ccccc2F)nc(-c2ccccc2)n1 [Compound 2, N ^2-(2-Fluorophenyl)-6-phenyl-1,3,5-triazine-2,4-diamine]	156 to 158	99	83	82	–
Nc1nc(Nc2ccc(F)cc2)nc(-c2ccccc2)n1 [Compound 3, N ^2-(4-Fluorophenyl)-6-phenyl-1,3,5-triazine-2,4-diamine]	172 to 174	100	84	81	–
COc1ccc(Nc2nc(N)nc(-c3ccc(F)cc3)n2)cc1 [Compound 30, 6-(4-Fluorophenyl)-N^2-(4-methoxyphenyl)-1,3,5-triazine-2,4-diamine]	158 to 160	92	90	74	–
Nc1nc(Nc2ccccc2)nc(-c2ccc(Cl)cc2)n1 [Compound 34, 6-(4-Chlorophenyl)-N^2-phenyl-1,3,5-triazine-2,4-diamine]	154 to 156	100	100	81	–
COc1ccc(Nc2nc(N)nc(-c3ccc(OC)cc3)n2)cc1 [Compound 71, N ^2,6-Bis(4-methoxyphenyl)-1,3,5-triazine-2,4-diamine]	163 to 165	95	93	56	14.1
Nc1nc(Nc2ccc(F)cc2)nc(-c2ccc(C(F)(F)F)cc2)n1 [Compound 84, N ^2-(4-Fluorophenyl)-6-(4-(trifluoromethyl)phenyl)-1,3,5-triazine-2,4-diamine]	150 to 152	100	98	95	–
Nc1nc(Nc2ccc(F)cc2)nc(-c2ccc(OC(F)(F)F)cc2)n1 [Compound 91, N ^2-(4-Fluorophenyl)-6-(4-(trifluoromethoxy)phenyl)-1,3,5-triazine-2,4-diamine]	139 to 140	100	86	53	–
Nc1nc(Nc2ccc(F)cc2)nc(-c2ccc(OCc3ccccc3)cc2)n1 [Compound 111, 6-(4-(Benzyloxy)phenyl)-N^2-(4-fluorophenyl)-1,3,5-triazine-2,4-diamine]	177 to 179	89	84	69	–
COc1ccccc1Nc1nc(N)nc(-c2cccs2)n1 [Compound 122, N ^2-(2-Methoxyphenyl)-6-(thiophen-2-yl)-1,3,5-triazine-2,4-diamine]	165 to 167	91	97	78	–

Source: PMC9050923, “6,N^2-Diaryl-1,3,5-triazine-2,4-diamines: synthesis, antiproliferative activity and 3D-QSAR modeling” (RSC Advances, 2020)
